# Results as given in paper PMC5218480 (PLoS ONE, 2017).
# Test system: MV-4-11 cells
# Assay: Gene expression microarray analysis (Affymetrix PrimeView) and GSEA
# Type: cell-based, human
# Parameters: RFU PODN (11730768_x_at) / Fold change /veh PODN (11730768_x_at) / RFU LINC00158 (11744669_a_at) / Fold change /veh LINC00158 (11744669_a_at) / RFU DUSP10 (11751237_a_at) / Fold change /veh DUSP10 (11751237_a_at) / RFU ID3 (11757404_x_at) / Fold change /veh ID3 (11757404_x_at) / RFU PLEKHG5 (11737974_s_at) / Fold change /veh PLEKHG5 (11737974_s_at) / RFU LRRC4B (11730491_at) / Fold change /veh LRRC4B (11730491_at) / RFU GIMAP4 (11747438_a_at) / Fold change /veh GIMAP4 (11747438_a_at) / RFU KRT8 (11758183_x_at) / Fold change /veh KRT8 (11758183_x_at) / RFU CNN1 (11734310_a_at) / Fold change /veh CNN1 (11734310_a_at) / RFU VPS37D (11726825_at) / Fold change /veh VPS37D (11726825_at) / RFU C10orf10 (11716522_x_at) / Fold change /veh C10orf10 (11716522_x_at) / RFU KIR2DL2 /// KIR2DL4 /// KIR2DL5A /// KIR2DL5B /// KIR2DS1 /// KIR2DS2 /// KIR2DS3 /// KIR2DS4 /// KIR3DL3 /// KIR3DL3 /// KIR3DS1 (11738374_at) / Fold change /veh KIR2DL2 /// KIR2DL4 /// KIR2DL5A /// KIR2DL5B /// KIR2DS1 /// KIR2DS2 /// KIR2DS3 /// KIR2DS4 /// KIR3DL3 /// KIR3DL3 /// KIR3DS1 (11738374_at) / RFU C1QL1 (11718748_at) / Fold change /veh C1QL1 (11718748_at) / RFU TMPRSS4 (11747572_a_at) / Fold change /veh TMPRSS4 (11747572_a_at) / RFU HAMP (11756126_x_at) / Fold change /veh HAMP (11756126_x_at) / RFU RNFT2 (11725882_a_at) / Fold change /veh RNFT2 (11725882_a_at) / RFU NR4A2 (11747474_a_at) / Fold change /veh NR4A2 (11747474_a_at) / RFU ABCC12 (11746883_a_at) / Fold change /veh ABCC12 (11746883_a_at) / RFU TMEM136 (11760407_x_at) / Fold change /veh TMEM136 (11760407_x_at) / RFU CLDN22 /// WWC2 (11732394_at) / Fold change /veh CLDN22 /// WWC2 (11732394_at) / RFU HLA-DPB1 (11760878_x_at) / Fold change /veh HLA-DPB1 (11760878_x_at) / RFU SPINT1 (11716480_a_at) / Fold change /veh SPINT1 (11716480_a_at) / RFU GAP43 (11754022_s_at) / Fold change /veh GAP43 (11754022_s_at) / RFU A4GNT (11735810_at) / Fold change /veh A4GNT (11735810_at) / RFU PRB3 (11715151_x_at) / Fold change /veh PRB3 (11715151_x_at) / RFU TUBB4B (11761932_at) / Fold change /veh TUBB4B (11761932_at) / RFU CAPN14 (11732068_a_at) / Fold change /veh CAPN14 (11732068_a_at) / RFU TMCC2 (11721928_a_at) / Fold change /veh TMCC2 (11721928_a_at) / RFU IRGQ (11745062_a_at) / Fold change /veh IRGQ (11745062_a_at) / RFU FAM174B (11720279_a_at) / Fold change /veh FAM174B (11720279_a_at) / RFU TMPRSS4 (11748680_a_at) / Fold change /veh TMPRSS4 (11748680_a_at) / RFU FAM212B (11763350_a_at) / Fold change /veh FAM212B (11763350_a_at) / RFU PLEKHG5 (11743358_a_at) / Fold change /veh PLEKHG5 (11743358_a_at) / RFU ZSCAN30 (11745921_a_at) / Fold change /veh ZSCAN30 (11745921_a_at) / RFU CMKLR1 (11741424_a_at) / Fold change /veh CMKLR1 (11741424_a_at) / RFU LOC101060620 /// MAPK8IP1 (11723275_at) / Fold change /veh LOC101060620 /// MAPK8IP1 (11723275_at) / RFU SPTSSB (11747773_x_at) / Fold change /veh SPTSSB (11747773_x_at) / RFU PRSS12 (11739890_at) / Fold change /veh PRSS12 (11739890_at) / RFU BIN1 (11741810_x_at) / Fold change /veh BIN1 (11741810_x_at) / RFU WNT11 (11732464_a_at) / Fold change /veh WNT11 (11732464_a_at) / RFU C10orf10 (11716521_a_at) / Fold change /veh C10orf10 (11716521_a_at) / RFU C5orf56 (11738089_at) / Fold change /veh C5orf56 (11738089_at) / RFU CYB561 (11721691_x_at) / Fold change /veh CYB561 (11721691_x_at) / RFU ANKRD19P (11752326_a_at) / Fold change /veh ANKRD19P (11752326_a_at) / RFU OR2T12 /// OR2T33 /// OR2T8 (11738714_s_at) / Fold change /veh OR2T12 /// OR2T33 /// OR2T8 (11738714_s_at) / RFU VCAN (11748164_a_at) / Fold change /veh VCAN (11748164_a_at) / RFU JSRP1 (11732532_at) / Fold change /veh JSRP1 (11732532_at) / RFU KRTAP10-11 (11738290_x_at) / Fold change /veh KRTAP10-11 (11738290_x_at) / RFU MYO3A (11730013_a_at) / Fold change /veh MYO3A (11730013_a_at) / RFU EBF3 (11725865_a_at) / Fold change /veh EBF3 (11725865_a_at) / RFU CAMK2N1 (11719241_x_at) / Fold change /veh CAMK2N1 (11719241_x_at) / RFU C5orf56 (11738088_a_at) / Fold change /veh C5orf56 (11738088_a_at) / RFU OLFML3 (11715873_a_at) / Fold change /veh OLFML3 (11715873_a_at) / RFU LOC100653217 /// NTM (11731650_a_at) / Fold change /veh LOC100653217 /// NTM (11731650_a_at) / RFU MAPK11 (11762145_a_at) / Fold change /veh MAPK11 (11762145_a_at) / RFU FIZ1 (11724087_x_at) / Fold change /veh FIZ1 (11724087_x_at) / RFU OASL (11726364_x_at) / Fold change /veh OASL (11726364_x_at) / RFU SOX15 (11748057_x_at) / Fold change /veh SOX15 (11748057_x_at) / RFU CD79A (11719716_a_at) / Fold change /veh CD79A (11719716_a_at) / RFU HIST1H1D (11736915_at) / Fold change /veh HIST1H1D (11736915_at) / RFU CASKIN2 (11723855_a_at) / Fold change /veh CASKIN2 (11723855_a_at) / RFU LOC730098 (11760151_x_at) / Fold change /veh LOC730098 (11760151_x_at) / RFU OR4N2 (11742367_at) / Fold change /veh OR4N2 (11742367_at) / RFU PRRT2 (11749266_a_at) / Fold change /veh PRRT2 (11749266_a_at) / RFU SNX32 (11753110_a_at) / Fold change /veh SNX32 (11753110_a_at) / RFU CDHR5 (11726645_a_at) / Fold change /veh CDHR5 (11726645_a_at) / RFU RCAN1 (11760418_a_at) / Fold change /veh RCAN1 (11760418_a_at) / RFU FAM167A (11723789_a_at) / Fold change /veh FAM167A (11723789_a_at) / RFU FAM26E (11764081_at) / Fold change /veh FAM26E (11764081_at) / RFU ISYNA1 (11749810_s_at) / Fold change /veh ISYNA1 (11749810_s_at) / RFU ACY1 (11761880_at) / Fold change /veh ACY1 (11761880_at) / RFU 11764098_at / Fold change /veh 11764098_at / RFU SAMD14 (11745864_x_at) / Fold change /veh SAMD14 (11745864_x_at) / RFU NPB (11741838_a_at) / Fold change /veh NPB (11741838_a_at) / RFU TMPRSS6 (11731388_a_at) / Fold change /veh TMPRSS6 (11731388_a_at) / RFU KRTAP10-2 (11738614_at) / Fold change /veh KRTAP10-2 (11738614_at) / RFU ARHGAP8 /// PRR5-ARHGAP8 (11727945_x_at) / Fold change /veh ARHGAP8 /// PRR5-ARHGAP8 (11727945_x_at) / RFU KRTAP5-7 /// NADSYN1 (11734609_at) / Fold change /veh KRTAP5-7 /// NADSYN1 (11734609_at) / RFU RASL12 (11751679_a_at) / Fold change /veh RASL12 (11751679_a_at) / RFU CDKN2B (11736163_a_at) / Fold change /veh CDKN2B (11736163_a_at) / RFU PRF1 (11729649_at) / Fold change /veh PRF1 (11729649_at) / RFU, ZNF638 /// ZNF638-IT1 / Fold change vs veh, ZNF638 /// ZNF638-IT1 / RFU, PANK3 / Fold change vs veh, PANK3 / RFU, SH3YL1 / Fold change vs veh, SH3YL1 / RFU, ZEB2 / Fold change vs veh, ZEB2 / RFU, NRIP1 / Fold change vs veh, NRIP1 / RFU, PTTG1IP / Fold change vs veh, PTTG1IP / RFU, CAPN2 / Fold change vs veh, CAPN2 / RFU, MED14 / Fold change vs veh, MED14 / RFU, SNORA58 / Fold change vs veh, SNORA58 / RFU, C1orf63 / Fold change vs veh, C1orf63 / RFU, LRRFIP1 / Fold change vs veh, LRRFIP1 / RFU, NDUFAF7 / Fold change vs veh, NDUFAF7 / RFU, SLC12A2 / Fold change vs veh, SLC12A2 / RFU, IBTK / Fold change vs veh, IBTK / RFU, ESF1 / Fold change vs veh, ESF1 / Fold change vs veh, TMEM50B / RFU, TAOK1 / Fold change vs veh, TAOK1 / RFU, ACBD3 / Fold change vs veh, ACBD3 / RFU, TMA16 / Fold change vs veh, TMA16 / RFU, RWDD3 / Fold change vs veh, RWDD3 / RFU, BCAT1 / Fold change vs veh, BCAT1 / RFU, EDEM3 / Fold change vs veh, EDEM3 / RFU, TMEM33 / Fold change vs veh, TMEM33 / RFU, WDR75 / Fold change vs veh, WDR75 / RFU, AHCTF1 / Fold change vs veh, AHCTF1 / RFU, TFRC / Fold change vs veh, TFRC / RFU, ZDHHC17 / Fold change vs veh, ZDHHC17 / RFU, NOM1 / Fold change vs veh, NOM1 / RFU, ARL8B / Fold change vs veh, ARL8B / RFU, ZBTB11 / Fold change vs veh, ZBTB11 / RFU, TAMM41 / Fold change vs veh, TAMM41 / RFU, KIAA1704 /// LOC100996395 / Fold change vs veh, KIAA1704 /// LOC100996395 / RFU, ING1 / Fold change vs veh, ING1 / RFU, TRMT61B / Fold change vs veh, TRMT61B / RFU, FUBP3 / Fold change vs veh, FUBP3 / RFU, TP53 / Fold change vs veh, TP53 / RFU, TNKS2 / Fold change vs veh, TNKS2 / RFU, ZFP14 / Fold change vs veh, ZFP14 / RFU, ACTR2 / Fold change vs veh, ACTR2 / RFU, PPP3R1 / Fold change vs veh, PPP3R1 / RFU, PIK3R1 / Fold change vs veh, PIK3R1 / RFU, HNRNPA1 / Fold change vs veh, HNRNPA1 / RFU, RNF170 / Fold change vs veh, RNF170 / RFU, ZNF28 / Fold change vs veh, ZNF28 / RFU, RNGTT / Fold change vs veh, RNGTT / RFU, OGT / Fold change vs veh, OGT / RFU, BRD1 / Fold change vs veh, BRD1 / RFU, MARS / Fold change vs veh, MARS / RFU, ZNF655 / Fold change vs veh, ZNF655 / RFU, FAHD1 / Fold change vs veh, FAHD1 / RFU, BDP1 / Fold change vs veh, BDP1 / RFU, LRRCC1 / Fold change vs veh, LRRCC1 / RFU, ARID1A / Fold change vs veh, ARID1A / RFU, ZNF146 / Fold change vs veh, ZNF146 / RFU, ZNF330 / Fold change vs veh, ZNF330 / RFU, GPN3 / Fold change vs veh, GPN3 / RFU, C9orf123 / Fold change vs veh, C9orf123 / RFU, N4BP2L2 / Fold change vs veh, N4BP2L2 / RFU, ARFIP1 / Fold change vs veh, ARFIP1 / RFU, FAM179B / Fold change vs veh, FAM179B / RFU, BCL10 / Fold change vs veh, BCL10 / RFU, UHRF1BP1L / Fold change vs veh, UHRF1BP1L / RFU, BET1 / Fold change vs veh, BET1 / RFU, CNOT2 / Fold change vs veh, CNOT2 / RFU, ZNF268 / Fold change vs veh, ZNF268 / Fold change vs veh, ZNF507 / RFU, DGCR2 / Fold change vs veh, DGCR2 / RFU, WDSUB1 / Fold change vs veh, WDSUB1 / Fold change vs veh, HSP90B1 /// MIR3652 / RFU, ADSS / Fold change vs veh, ADSS / RFU, GK / Fold change vs veh, GK / RFU, ZNF148 / Fold change vs veh, ZNF148 / RFU, TAF9 / Fold change vs veh, TAF9 / RFU, SLC1A5 / Fold change vs veh, SLC1A5 / RFU, SLMO2 / Fold change vs veh, SLMO2 / RFU, ABCC4 / Fold change vs veh, ABCC4 / RFU, LOC101060439 /// RAP1B / Fold change vs veh, LOC101060439 /// RAP1B / RFU, RFX7 / Fold change vs veh, RFX7 / RFU, GTPBP10 / Fold change vs veh, GTPBP10 / RFU, CNEP1R1 / Fold change vs veh, CNEP1R1 / RFU, BIVM-ERCC5 /// ERCC5 / Fold change vs veh, BIVM-ERCC5 /// ERCC5 / RFU, ILF3 / Fold change vs veh, ILF3 / RFU 11762660_at / Fold change /veh 11762660_at / RFU VCAN (11757783_s_at) / Fold change /veh VCAN (11757783_s_at) / RFU DDX43 (11728927_at) / Fold change /veh DDX43 (11728927_at) / RFU KRT8 (11758188_x_at) / Fold change /veh KRT8 (11758188_x_at) / RFU NKD1 (11759106_at) / Fold change /veh NKD1 (11759106_at) / RFU SRD5A1 (11742802_a_at) / Fold change /veh SRD5A1 (11742802_a_at) / RFU TPSAB1 /// TPSB2 (11721975_s_at) / Fold change /veh TPSAB1 /// TPSB2 (11721975_s_at) / RFU GSTM3 (11746129_a_at) / Fold change /veh GSTM3 (11746129_a_at) / RFU IL23R (11737362_x_at) / Fold change /veh IL23R (11737362_x_at) / RFU TMEM51 (11727254_a_at) / Fold change /veh TMEM51 (11727254_a_at) / RFU PIWIL2 (11732686_x_at) / Fold change /veh PIWIL2 (11732686_x_at) / RFU ORM1 (11744905_x_at) / Fold change /veh ORM1 (11744905_x_at) / RFU CCDC152 (11743942_at) / Fold change /veh CCDC152 (11743942_at) / RFU ECM1 (11717891_a_at) / Fold change /veh ECM1 (11717891_a_at) / RFU IL23R (11748794_a_at) / Fold change /veh IL23R (11748794_a_at) / RFU TNFAIP8L3 (11732012_x_at) / Fold change /veh TNFAIP8L3 (11732012_x_at) / RFU MBOAT4 (11741988_at) / Fold change /veh MBOAT4 (11741988_at) / RFU 11764193_at / Fold change /veh 11764193_at / RFU TMEM53 (11763286_at) / Fold change /veh TMEM53 (11763286_at) / RFU MAGEB2 (11727129_at) / Fold change /veh MAGEB2 (11727129_at) / RFU TMEM200A (11744735_a_at) / Fold change /veh TMEM200A (11744735_a_at) / RFU CCDC152 (11751479_a_at) / Fold change /veh CCDC152 (11751479_a_at) / RFU FAM211A (11726209_a_at) / Fold change /veh FAM211A (11726209_a_at) / RFU RGS16 (11746705_a_at) / Fold change /veh RGS16 (11746705_a_at) / RFU VCAN (11755009_s_at) / Fold change /veh VCAN (11755009_s_at) / RFU RHOB (11743442_s_at) / Fold change /veh RHOB (11743442_s_at) / RFU RGS16 (11720943_a_at) / Fold change /veh RGS16 (11720943_a_at) / RFU RGS16 (11720944_at) / Fold change /veh RGS16 (11720944_at) / RFU, VPS4B / Fold change vs veh, VPS4B / RFU, CREB1 / Fold change vs veh, CREB1 / RFU, DNAJC13 / Fold change vs veh, DNAJC13 / RFU, GNAQ / Fold change vs veh, GNAQ / RFU, CDK5R1 / Fold change vs veh, CDK5R1 / RFU, ZRANB3 / Fold change vs veh, ZRANB3 / RFU, CUL4A / Fold change vs veh, CUL4A / RFU, CCNY / Fold change vs veh, CCNY / RFU, UFL1 / Fold change vs veh, UFL1 / RFU, COG3 / Fold change vs veh, COG3 / RFU, DIAPH2 / Fold change vs veh, DIAPH2 / RFU, SKA2 / Fold change vs veh, SKA2 / RFU, AFF3 / Fold change vs veh, AFF3 / RFU, LMF1 / Fold change vs veh, LMF1 / RFU, IPO11 / Fold change vs veh, IPO11 / RFU, DFFB / Fold change vs veh, DFFB / RFU, FOXP1 / Fold change vs veh, FOXP1 / RFU, CARD8 / Fold change vs veh, CARD8 / RFU, STRN3 / Fold change vs veh, STRN3 / RFU, ADK / Fold change vs veh, ADK / RFU, RASSF2 / Fold change vs veh, RASSF2 / RFU, WIPF1 / Fold change vs veh, WIPF1 / RFU, LARP1B / Fold change vs veh, LARP1B / RFU, RASA1 / Fold change vs veh, RASA1 / RFU, RB1 / Fold change vs veh, RB1 / RFU, PPFIA1 / Fold change vs veh, PPFIA1 / RFU, MAT2A / Fold change vs veh, MAT2A / RFU, CCT5 / Fold change vs veh, CCT5 / RFU, WDR92 / Fold change vs veh, WDR92 / RFU, CUX1 / Fold change vs veh, CUX1 / RFU, TTC7A / Fold change vs veh, TTC7A / RFU, TMEM135 / Fold change vs veh, TMEM135 / RFU, DEPTOR / Fold change vs veh, DEPTOR / RFU, CPM / Fold change vs veh, CPM / RFU, DNAJB6 / Fold change vs veh, DNAJB6 / RFU, CACNA2D3 / Fold change vs veh, CACNA2D3 / RFU, DTX4 / Fold change vs veh, DTX4 / RFU, TFCP2 / Fold change vs veh, TFCP2 / RFU, GMCL1 /// GMCL1P1 / Fold change vs veh, GMCL1 /// GMCL1P1 / RFU, AEBP2 / Fold change vs veh, AEBP2 / RFU, SNHG1 /// SNORD22 /// SNORD25 /// SNORD26 /// SNORD27 /// SNORD28 /// SNORD29 /// SNORD31 / Fold change vs veh, SNHG1 /// SNORD22 /// SNORD25 /// SNORD26 /// SNORD27 /// SNORD28 /// SNORD29 /// SNORD31 / Fold change (Aza/veh), C12orf56 (ProbeSet 11735607_a_at) / Fold change (ACY-1035/veh), C12orf56 (ProbeSet 11735607_a_at) / Fold change (Aza/veh), FGFR1OP (ProbeSet 11751329_s_at) / Fold change (ACY-1035/veh), FGFR1OP (ProbeSet 11751329_s_at) / Fold change (Aza/veh), VPS36 (ProbeSet 11739960_a_at) / Fold change (ACY-1035/veh), VPS36 (ProbeSet 11739960_a_at) / RFU SYPL1 (11715823_x_at) / Fold change /veh SYPL1 (11715823_x_at) / RFU IGFBP7 (11715501_s_at) / Fold change /veh IGFBP7 (11715501_s_at) / RFU REEP3 (11722064_at) / Fold change /veh REEP3 (11722064_at) / RFU IGLL1 (11728026_x_at) / Fold change /veh IGLL1 (11728026_x_at): dose or concentration left out as unconfirmed
# Settings: MV-4-11 cells, 48 hours
compound,measurement,value
Nc1ncn([C@@H]2O[C@H](CO)[C@@H](O)[C@H]2O)c(=O)n1 [azacitidine],RFU TUBB4B (11761932_at),18.89 RFU
